Source: patent US8247211B2, “Glycopeptide antibiotics” (American Cyanamid Company, priority 2001, dated 2012)
Converted amounts (≈) assume the structure as drawn. Like-named read-outs stand apart in the source and are kept apart here. Numbered stars: 1 amine (or outer) side, 2 acyl side, 3 side chain; on linkers, the order of the positions; unused ones are H or OH. Square brackets hold non-standard residues; d marks the D form. Peptide text beside a SMILES is read from it. ξ: configuration not given here. X1 = N=C1NCC(C(O)C(N[*:1])C(=O)[*:2])N1C1OC(CO)C(O)C(O)C1O; ξEnduracididine(βξ-OH,4'ξ) = N=C1NCC(C(O)C(N)C(=O)O)N1; Cha = N[CH](CC1CCCCC1)C(=O)O

Assays:
[1] = tested on: Staphylococcus aureus-SMITH (GC 4543); experiment: Acute lethal infection in mice (ED50); assay type: in vivo; details: female CD-1 mice, intraperitoneal challenge, intravenous dose 30 min. after infection, 7 day survival ratios
In short: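 Female CD-1 mice challenged intraperitoneally with a bacterial dose lethal to untreated controls within 24-48 h. Compound given intravenously in saline or 5% dextrose 30 min post-infection, five mice per dose; ED50 from 7-day survival pooled over 3 tests.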

Streptococcus sp. = experiment: In vitro antibacterial evaluation: minimum inhibitory concentration (MIC), broth dilution method; assay type: cell-based; details: broth dilution, 18 hours at 35° C.
In short: (§1)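 Using Muller-Hinton II […] and an inoculum of 5×10^5 CFU/mL, antibiotic dilutions from 64 down to 0.06 μg/mL were tested following NCCLS M7-A2. The MIC is the lowest concentration inhibiting growth, including in methicillin-, penicillin- or vancomycin-resistant clinical isolates.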

Enterococcus sp. = experiment: as above; assay type: cell-based
In short: as §1

Staphylococcus sp. = experiment: as above; assay type: cell-based; details: 18 hours at 35° C.
In short: as §1

Escherichia coli [2] = experiment: as above; assay type: cell-based; details: broth dilution, 18 hours at 35° C.
[3] = Anatomic pathology (heart and kidney histopathology) in mice; assay type: in vivo, CD-1 mice; details: 20 mg/kg intravenously daily for 9 days, microscopic histopathology on day 10
In short: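 Juvenile CD-1 mice (20 days old; 5 vehicle, 5 treated) received glycopeptide antibiotic 20 mg/kg i.v. daily for 9 days. Necropsied tissues formalin-fixed, paraffin-embedded, H&E stained and examined microscopically; findings graded slight to severe versus controls.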

Escherichia coli [4] = experiment: In vitro antibacterial evaluation: minimum inhibitory concentration (MIC), broth dilution method; assay type: cell-based
Escherichia coli [5] = experiment: as above; assay type: cell-based; remark: listed apart in the source
In short: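 Following NCCLS approved standard M7-A2, compounds are serially diluted from 64 to 0.06 μg/mL in Muller-Hinton II […] and inoculated at 5×10^5 CFU/mL; the MIC is the minimum concentration at which growth is inhibited.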

[6] = broth dilution, 18 hours at 35° C.

N=C1NCC(C(O)C2NC(=O)C(CC3CCCCC3)NC(=O)C(CC3CCCCC3)NC(=O)CNC(=O)C(CO)NC(=O)C(C(O)C3CNC(=N)N3C3OC(CO)C(O)C(O)C3O)NC2=O)N1 (stereo not drawn) [Example 52, Cyclo[3-cyclohexylalanyl-3-cyclohexylalanyl-3-(2-iminoimidazolidin-4-yl)seryl-3-(3-hexopyranosyl-2-iminoimidazolidin-4-yl)serylserylglycyl]] (cyclo(G[Cha][Cha][ξEnduracididine(βξ-OH,4'ξ)][X1]S); configuration not given here)
median effective dose (ED50), Staphylococcus aureus-SMITH (GC 4543) [1]: >4
MIC Streptococcus agalactiae (GC 4564) (Streptococcus sp.; Streptococcus agalactiae (GC 4564)): 8 µg/mL (≈ 8.39 µM)
MIC Streptococcus pneumoniae (ATCC 6301) (Streptococcus sp.; Streptococcus pneumoniae (ATCC 6301)): 8 µg/mL (≈ 8.39 µM)
MIC Streptococcus pneumoniae (GC 1894) (Streptococcus sp.; Streptococcus pneumoniae (GC 1894)): 8 µg/mL (≈ 8.39 µM)
MIC Streptococcus pneumoniae (GC 4565) (Streptococcus sp.; Streptococcus pneumoniae (GC 4565)): 16 µg/mL (≈ 16.8 µM)
MIC Streptococcus pyogenes (GC 4563) (Streptococcus sp.; Streptococcus pyogenes (GC 4563)): 8 µg/mL (≈ 8.39 µM)
MIC Streptococcus agalactiae (GC 4564) (Streptococcus sp.): 8 µg/mL (≈ 8.39 µM)
MIC Streptococcus pneumoniae (ATCC 6301) (Streptococcus sp.): 8 µg/mL (≈ 8.39 µM)
MIC Streptococcus pneumoniae (GC 1894) (Streptococcus sp.): 8 µg/mL (≈ 8.39 µM)
MIC Streptococcus pneumoniae (GC 4565) (Streptococcus sp.): 16 µg/mL (≈ 16.8 µM)
MIC Streptococcus pyogenes (GC 4563) (Streptococcus sp.): 8 µg/mL (≈ 8.39 µM)
MIC Enterococcus avium (GC 4558) (Enterococcus sp.; Enterococcus avium (GC 4558), broth dilution, 18 hours at 35° C.): 32 µg/mL (≈ 33.6 µM)
MIC Enterococcus faecalis (ATCC 29212) (Enterococcus sp.; Enterococcus faecalis (ATCC 29212), broth dilution, 18 hours at 35° C.): 64 µg/mL (≈ 67.2 µM)
MIC Enterococcus faecalis (GC 2242) (Enterococcus sp.; Enterococcus faecalis (GC 2242), broth dilution, 18 hours at 35° C.): 32 µg/mL (≈ 33.6 µM)
MIC Enterococcus faecalis (GC 2691) (Enterococcus sp.; Enterococcus faecalis (GC 2691), broth dilution, 18 hours at 35° C.): 32 µg/mL (≈ 33.6 µM)
MIC Enterococcus faecalis (GC 3059) (Enterococcus sp.; Enterococcus faecalis (GC 3059), broth dilution, 18 hours at 35° C.): 32 µg/mL (≈ 33.6 µM)
MIC Enterococcus faecalis (GC 4552) (Enterococcus sp.; Enterococcus faecalis (GC 4552), broth dilution, 18 hours at 35° C.): 32 µg/mL (≈ 33.6 µM)
MIC Enterococcus faecalis (GC 4553) (Enterococcus sp.; Enterococcus faecalis (GC 4553), broth dilution, 18 hours at 35° C.): 16 µg/mL (≈ 16.8 µM)
MIC Enterococcus faecalis (GC 4554) (Enterococcus sp.; Enterococcus faecalis (GC 4554), broth dilution, 18 hours at 35° C.): 64 µg/mL (≈ 67.2 µM)
MIC Enterococcus faecalis (GC 6189) (Enterococcus sp.; Enterococcus faecalis (GC 6189), broth dilution, 18 hours at 35° C.): 32 µg/mL (≈ 33.6 µM)
MIC Enterococcus faecium (GC 2243) (Enterococcus sp.; Enterococcus faecium (GC 2243), broth dilution, 18 hours at 35° C.): 16 µg/mL (≈ 16.8 µM)
MIC Enterococcus faecium (GC 4556) (Enterococcus sp.; Enterococcus faecium (GC 4556), broth dilution, 18 hours at 35° C.): 32 µg/mL (≈ 33.6 µM)
MIC Enterococcus faecium (GC 4557) (Enterococcus sp.; Enterococcus faecium (GC 4557), broth dilution, 18 hours at 35° C.): 8 µg/mL (≈ 8.39 µM)
MIC Enterococcus avium (GC 4558) (Enterococcus sp.; [6]): 32 µg/mL (≈ 33.6 µM)
MIC Enterococcus faecalis (ATCC 29212) (Enterococcus sp.; [6]): 64 µg/mL (≈ 67.2 µM)
MIC Enterococcus faecalis (GC 2242) (Enterococcus sp.; [6]): 32 µg/mL (≈ 33.6 µM)
MIC Enterococcus faecalis (GC 2691) (Enterococcus sp.; [6]): 32 µg/mL (≈ 33.6 µM)
MIC Enterococcus faecalis (GC 3059) (Enterococcus sp.; [6]): 32 µg/mL (≈ 33.6 µM)
MIC Enterococcus faecalis (GC 4552) (Enterococcus sp.; [6]): 32 µg/mL (≈ 33.6 µM)
MIC Enterococcus faecalis (GC 4553) (Enterococcus sp.; [6]): 16 µg/mL (≈ 16.8 µM)
MIC Enterococcus faecalis (GC 4554) (Enterococcus sp.; [6]): 64 µg/mL (≈ 67.2 µM)
MIC Enterococcus faecalis (GC 6189) (Enterococcus sp.; [6]): 32 µg/mL (≈ 33.6 µM)
MIC Enterococcus faecium (GC 2243) (Enterococcus sp.; [6]): 16 µg/mL (≈ 16.8 µM)
MIC Enterococcus faecium (GC 4556) (Enterococcus sp.; [6]): 32 µg/mL (≈ 33.6 µM)
MIC Enterococcus faecium (GC 4557) (Enterococcus sp.; [6]): 8 µg/mL (≈ 8.39 µM)
MIC Coagulase Negative Staphylococcus (GC 4547) (Staphylococcus sp.; broth dilution): 8 µg/mL (≈ 8.39 µM)
MIC Coagulase Negative Staphylococcus (GC 4548) (Staphylococcus sp.; broth dilution): 8 µg/mL (≈ 8.39 µM)
MIC Coagulase Negative Staphylococcus (GC 4549) (Staphylococcus sp.; broth dilution): 4 µg/mL (≈ 4.2 µM)
MIC Coagulase Negative Staphylococcus (GC 4551) (Staphylococcus sp.; broth dilution): 8 µg/mL (≈ 8.39 µM)
MIC Staphylococcus aureus SMITH (GC 4543) (Staphylococcus sp.; broth dilution): 16 µg/mL (≈ 16.8 µM)
MIC Staphylococcus haemolyticus (GC 4546) (Staphylococcus sp.; broth dilution): 4 µg/mL (≈ 4.2 µM)
MIC Staphylococcus aureus-SMITH (GC 4543) (Staphylococcus sp.; strain SMITH GC 4543, broth dilution): 16 µg/mL (≈ 16.8 µM)
MIC Escherichia coli (ATCC 25922) (Escherichia coli [2]): 64 µg/mL (≈ 67.2 µM)
MIC Escherichia coli (GC 4559) (Escherichia coli [2]): 64 µg/mL (≈ 67.2 µM)
MIC Escherichia coli (GC 4560) (Escherichia coli [2]): 16 µg/mL (≈ 16.8 µM)
Anatomical Pathology (Day 10), Heart [3]: 0
Anatomical Pathology (Day 10), Kidney [3]: +++

CC(C)CC(=O)OC1C(O)C(CO)OC(OC2C(CO)OC(Oc3ccc(CC4NC(=O)C(C(C)c5cccs5)NC(=O)CNC(=O)C(CO)NC(=O)C(C(O)C5CNC(=N)N5C5OC(CO)C(O)C(O)C5O)NC(=O)C(C(O)C5CNC(=N)N5)NC4=O)cc3)C(O)C2O)C1O (centres unmarked) [Example 265b]
MIC Escherichia coli (ATCC 25922) (Escherichia coli [4]): >64 µg/mL
MIC Enterococcus avium (GC 4558) (Enterococcus sp.; Enterococcus avium (GC 4558)): 64 µg/mL (≈ 46.2 µM)
MIC Enterococcus faecalis (ATCC 29212) (Enterococcus sp.; Enterococcus faecalis (ATCC 29212)): 64 µg/mL (≈ 46.2 µM)
MIC Enterococcus faecalis (GC 4553) (Enterococcus sp.; Enterococcus faecalis (GC 4553)): 64 µg/mL (≈ 46.2 µM)
MIC Enterococcus faecalis (GC 4554) (Enterococcus sp.; Enterococcus faecalis (GC 4554)): >64 µg/mL
MIC Enterococcus faecium (GC 2243) (Enterococcus sp.; Enterococcus faecium (GC 2243)): 64 µg/mL (≈ 46.2 µM)
MIC Enterococcus faecium (GC 4556) (Enterococcus sp.; Enterococcus faecium (GC 4556)): 64 µg/mL (≈ 46.2 µM)
MIC Enterococcus faecium (GC 4557) (Enterococcus sp.; Enterococcus faecium (GC 4557)): 8 µg/mL (≈ 5.77 µM)
MIC Enterococcus faecalis (GC 2242) (Enterococcus sp.; broth dilution, 18 hours at 35° C., strain GC 2242): 4 µg/mL (≈ 2.89 µM)
MIC Enterococcus faecalis (GC 2691) (Enterococcus sp.; broth dilution, 18 hours at 35° C., strain GC 2691): 64 µg/mL (≈ 46.2 µM)
MIC Escherichia coli (GC 4559) (Escherichia coli [5]; Escherichia coli (GC 4559)): 64 µg/mL (≈ 46.2 µM)
MIC Escherichia coli (GC 4560) (Escherichia coli [5]; Escherichia coli (GC 4560)): 4 µg/mL (≈ 2.89 µM)
MIC Coagulase Negative Staphylococcus (GC 4547) (Staphylococcus sp.; Coagulase Negative Staphylococcus (GC 4547)): 8 µg/mL (≈ 5.77 µM)
MIC Coagulase Negative Staphylococcus (GC 4547) (Staphylococcus sp.; Coagulase Negative Staphylococcus (GC 4547), broth dilution): 8 µg/mL (≈ 5.77 µM)
MIC Coagulase Negative Staphylococcus (GC 4548) (Staphylococcus sp.; Coagulase Negative Staphylococcus (GC 4548)): 4 µg/mL (≈ 2.89 µM)
MIC Coagulase Negative Staphylococcus (GC 4548) (Staphylococcus sp.; Coagulase Negative Staphylococcus (GC 4548), broth dilution): 4 µg/mL (≈ 2.89 µM)
MIC Coagulase Negative Staphylococcus (GC 4549) (Staphylococcus sp.; Coagulase Negative Staphylococcus (GC 4549)): 4 µg/mL (≈ 2.89 µM)
MIC Coagulase Negative Staphylococcus (GC 4549) (Staphylococcus sp.; Coagulase Negative Staphylococcus (GC 4549), broth dilution): 4 µg/mL (≈ 2.89 µM)
MIC Coagulase Negative Staphylococcus (GC 4551) (Staphylococcus sp.; Coagulase Negative Staphylococcus (GC 4551)): 8 µg/mL (≈ 5.77 µM)
MIC Coagulase Negative Staphylococcus (GC 4551) (Staphylococcus sp.; Coagulase Negative Staphylococcus (GC 4551), broth dilution): 8 µg/mL (≈ 5.77 µM)
MIC Staphylococcus aureus (ATCC 29213) (Staphylococcus sp.): 16 µg/mL (≈ 11.5 µM)
MIC Staphylococcus aureus (ATCC 29213) (Staphylococcus sp.; broth dilution): 16 µg/mL (≈ 11.5 µM)
MIC Staphylococcus aureus (GC 1131) (Staphylococcus sp.): 32 µg/mL (≈ 23.1 µM)
MIC Staphylococcus aureus (GC 1131) (Staphylococcus sp.; broth dilution): 32 µg/mL (≈ 23.1 µM)
MIC Staphylococcus aureus (GC 4541) (Staphylococcus sp.): 8 µg/mL (≈ 5.77 µM)
MIC Staphylococcus aureus (GC 4541) (Staphylococcus sp.; broth dilution): 8 µg/mL (≈ 5.77 µM)
MIC Staphylococcus aureus (GC 4542) (Staphylococcus sp.): 8 µg/mL (≈ 5.77 µM)
MIC Staphylococcus aureus (GC 4542) (Staphylococcus sp.; broth dilution): 8 µg/mL (≈ 5.77 µM)
MIC Staphylococcus aureus (GC 4544) (Staphylococcus sp.): 8 µg/mL (≈ 5.77 µM)
MIC Staphylococcus aureus (GC 4544) (Staphylococcus sp.; broth dilution): 8 µg/mL (≈ 5.77 µM)
MIC Staphylococcus aureus (GC 4545) (Staphylococcus sp.): 8 µg/mL (≈ 5.77 µM)
MIC Staphylococcus aureus (GC 4545) (Staphylococcus sp.; broth dilution): 8 µg/mL (≈ 5.77 µM)
MIC Staphylococcus aureus-SMITH (GC 4543) (Staphylococcus sp.; Staphylococcus aureus-SMITH (GC 4543)): 8 µg/mL (≈ 5.77 µM)
MIC Staphylococcus aureus-SMITH (GC 4543) (Staphylococcus sp.; Staphylococcus aureus-SMITH (GC 4543), broth dilution): 8 µg/mL (≈ 5.77 µM)
MIC Staphylococcus haemolyticus (GC 4546) (Staphylococcus sp.; Staphylococcus haemolyticus (GC 4546)): 8 µg/mL (≈ 5.77 µM)
MIC Staphylococcus haemolyticus (GC 4546) (Staphylococcus sp.; Staphylococcus haemolyticus (GC 4546), broth dilution): 8 µg/mL (≈ 5.77 µM)
